{"source": "patent US20100168165A1", "about": "“METHOD OF TREATING DISEASE INVOLVING MYELIN AND/OR AXONAL LOSS” (The United States of America, as represented by the …, priority 2007, published 2010)", "key": {"neurofilament H": {"system": "neurofilament H", "assay": "Spinal cord neurofilament H in passive EAE animals", "format": "in vivo, SJL mice", "parameters": "cumulative disease score / peak disease score: scale not given here", "method": "SJL animals are induced for disease by the passive transfer of encephalitogenic T cells as described in Example 1. Animals are placed on either Tempol or control feed. The spinal cords of the animals are analyzed 90 days post transfer.\nNeurofilament staining is representative of the presence of axons. During autoimmune or demyelinating processes, the loss of neurofilament H has been associated with axonal loss."}, "[1]": {"system": "actively induced chronic progressive EAE", "assay": "Actively induced chronic progressive EAE (MOG35-55 immunization), Tempol food from 14 days before immunization", "format": "in vivo, SJL mice", "method": "(§1) SJL mice are placed on Tempol-containing food two weeks prior to the initiation of experimental autoimmune encephalomyelitis (EAE) either by active immunization with myelin antigens or the transfer of activated encephalitogenic T cells. Animals receive bacon-flavored control food and Tempol-containing food ad libitum (Bio-Serv, Frenchtown, N.J.). The composition of the control food and Tempol-containing food is identical with exception to the addition of Tempol at a concentration of 10 mg/gram of food (Mitchell et al., Free Radic. Biol. Med., 34: 93-102 (2003)). Bacon flavored food is used to mask the taste of Tempol. All experiments with animals are carried out according to protocols approved by and on file with the National Institute of Neurological Disorders and Stoke (NINDS) Animal Care and Use Committee (ACUC).\n(§2) For the EAE induction, all animals are female, 8-10 weeks of age at time of myelin protein immunization. Animals are immunized for active EAE induction with 200 μg of MOG35-55 peptide in 4 mg/ml H37Ra Mycobacterium/IFA with 200 ng pertussis toxin delivered intraperitoneally (IP) on days 0 and 2. For passive EAE induction, SJL animals are immunized with 75 μg of PLP139-151 peptide in 1 mg/ml H37Ra Mycobacterium/IFA (Difco, Detroit, Mich.). Ten days later, axillary and inguinal lymph nodes are removed and placed into culture with 5 μg/ml of PLP139-151 peptide. After 3 days, activated T cells are counted and 2 million blasted T cells are transferred IP to each SJL recipient mouse.\nMice are placed on control- or Tempol-containing food 14 days (T-14) prior to immunization with MOG peptide for EAE induction (day 0=date of immunization). Mice are blindly evaluated for onset of disease and clinical scores are assigned following examination as follows: 0=no clinical signs; 1=flaccid tail; 2=paresis of one or both hind legs; 3=paralysis of one or both hind legs; 4=quadriparesis or quadriparalysis; 5=moribund. The cumulative score represents the mean of the summation of single scores recorded in each mouse over days 0 (day of immunization) to day 30 post disease induction. In this study, mice that are fed Tempol generate myelin antigen-specific T cells which are unable to cause paralytic disease in immunized mice."}, "myelin-specific T cells": {"system": "myelin-specific T cells", "assay": "Spleen recall proliferation to myelin antigen 20 days after immunization", "format": "in vivo", "details": "three animals per group, pooled; FIG. 9", "method": "Animals on control or Tempol feed are immunized with a myelin antigen, and the spleens are tested 20 days later for recall to antigen. Three animals per group are tested and the results are pooled (FIG. 9)."}, "leukocytic infiltration": {"system": "leukocytic infiltration", "assay": "Leukocyte count by flow cytometry in actively induced EAE", "format": "in vivo, C57BL/6J mice", "text": "Animals are placed on either Tempol or control feed, and the number of leukocytes are counted via flow cytometry."}, "inflammatory infiltrates": {"system": "inflammatory infiltrates", "assay": "Inflammatory infiltrate scoring of spinal cords at peak disease, passive EAE", "format": "in vivo, mice", "details": "5 animals per group, 11 cord levels, scale 1-5; FIG. 8", "method": "Animals induced passively for EAE with PLP-specific T cells are examined at peak disease for assessment of inflammatory infiltrates. The spinal cords from 5 animals per group (control-fed and Tempol-fed) are examined at 11 levels spanning the entire cord and assessed according to the following scale and an average inflammatory score is calculated per animal. Degree of inflammation: 1=1-2 mild infiltrates, little to no infiltration; 2=3+ infiltrates, +/− infiltration; 3=1-2 moderate infiltrates, 1-2 mild little/mild infiltrates; 4=3+ moderate infiltrates, or 1 severe/broad with or without mild infiltrates, extensive infiltration to parenchyma present; 5=2+ severe/broad parenchyma infiltrative, with or without additional mild/moderate associated infiltrates to parenchyma."}, "[2]": {"system": "passively induced chronic progressive EAE", "assay": "Passively induced chronic progressive EAE (transfer of PLP139-151-activated encephalitogenic T cells)", "format": "in vivo, SJL mice", "method": "as §1, §2\nMice are placed on control- or Tempol-containing food 14 days (T-14) prior to receipt of encephalitogenic T cells (day 0=date of T cell transfer). Mice are blindly evaluated for onset of disease and clinical scores were assigned following examination as follows: 0=no clinical signs; 1=flaccid tail; 2=paresis of one or both hind legs; 3=paralysis of one or both hind legs; 4=quadriparesis or quadriparalysis; 5=moribund. The cumulative score represents the mean of the summation of single scores recorded in each mouse over days 0 (day of T cell transfer) to day 48 post disease induction. PLP-specific T cells are capable of causing severe paralytic disease in the brain and spinal cord of control fed mice, yet Tempol-fed mice are protected showing decreased incidence of disease as well as reduced severity.\nSJL animals are induced for disease by the passive transfer of encephalitogenic T cells as described in Example 1. Animals are placed on either Tempol or control feed at either (i) 2 weeks prior to transfer, (ii) at the time of transfer, or (iii) at the onset of disease."}, "MOG-induced active EAE": {"system": "MOG-induced active EAE", "assay": "MOG-induced active EAE, switched to Tempol feed after onset of clinical signs", "format": "in vivo, mice", "details": "feed switched once 60% of animals show at least grade 1; FIG. 4", "method": "as §2"}, "[3]": {"system": "edema associated with inflammation and tissue damage", "assay": "Spinal cord T2 relaxation times (edema) in passive EAE", "format": "in vivo, SJL mice", "method": "SJL animals are induced for disease by the passive transfer of encephalitogenic T cells as described in Example 1. Animals are placed on either Tempol or control feed. In a spinal cord histogram, T2 relaxation times typically increase due to inflammation and edema during CNS autoimmunity/disease during EAE. […] In the control-fed animals, the spinal cord T2 relaxation times shifted to higher values due to edema and inflammation.\nThe average T2 relaxation times are measured for SJL passively-induced EAE animals on Tempol 2 weeks prior to T cell transfer. Five scans are collected per animal, which are pooled from: 2 control animals (10 total), 4 control-fed EAE animals (20 total), and 4 Tempol-fed EAE animals (20 total)."}, "[4]": {"details": "individual animals, passive EAE"}, "[5]": {"details": "clinical score 0-5, Tempol food from T-14, n = 10"}}, "note": "Several values for one entry are separate records, joined by “and”; a condition that tells them apart may be missing. Equal values may be shown once."}
{"smiles": "CC1(C)CC(O)CC(C)(C)N1[O]", "note": "[Tempol, 4-hydroxy-2,2,6,6-tetramethylpiperidine-1-oxyl]", "values": [{"measurement": "cumulative disease score", "setting": "neurofilament H; [4]", "value": "14 and 103.25 and 83.75 and 105.25 and 28.25 and 83 and 0.5 and 87.25 and 28.75"}, {"measurement": "peak disease score", "setting": "neurofilament H; [4]", "value": "2.25 (2×) and 3.5 (4×) and 2.75 and 2.5 and 0"}, {"measurement": "average (relative amount of spinal cord neurofilament H)", "setting": "neurofilament H; individual animals, spinal cords analyzed 90 days post transfer", "value": "0.9652 and 0.4487 and 0.7 and 0.3589 and 0.8499 and 0.3415 and 0.9171 and 0.9553 and 1.104"}, {"measurement": "Preservation of neurofilament H", "setting": "neurofilament H; versus control feed, FIG. 5 and Table 3", "value": "greater preservation of neurofilament H"}, {"measurement": "Effect on incidence and severity of EAE", "setting": "[1]; Table 1 and FIG. 1", "value": "reduces the incidence and severity"}, {"measurement": "Incidence of disease", "setting": "[1]; Tempol 10 mg/gram of food ad libitum from 14 days prior to MOG immunization, n = 10", "value": ".30"}, {"measurement": "Average peak disease severity", "setting": "[1]; [5]", "value": 0.83}, {"measurement": "Average cumulative disease score", "setting": "[1]; clinical score 0-5 summed over day 0 to day 30, Tempol food from T-14, n = 10", "value": 2.05}, {"measurement": "Generation of myelin-specific T cells by proliferative responses", "setting": "myelin-specific T cells", "value": "does not reduce the generation of myelin-specific T cells"}, {"measurement": "Inflammatory infiltrates at peak disease", "setting": "leukocytic infiltration; actively induced EAE, Table 4", "value": "limits the inflammatory infiltrates"}, {"measurement": "Microglial activation (upregulation of MHC class II expression)", "setting": "leukocytic infiltration; compared to animals on control feed", "value": "reduces the degree of microglial activation"}, {"measurement": "% B cell", "setting": "leukocytic infiltration; flow cytometry, peak disease", "value": "1.3% and 2.8%"}, {"measurement": "% CD3", "setting": "leukocytic infiltration; flow cytometry, peak disease", "value": "11.1% and 11.2%"}, {"measurement": "% mac/gran", "setting": "leukocytic infiltration; flow cytometry, peak disease", "value": "10.1% and 20.2%"}, {"measurement": "% microglia", "setting": "leukocytic infiltration; flow cytometry, peak disease", "value": "68.5% and 55.6%"}, {"measurement": "% total CD45 hi", "setting": "leukocytic infiltration; flow cytometry, peak disease", "value": "21.0% and 33.8%"}, {"measurement": "CD4:CD8 ratio", "setting": "leukocytic infiltration; flow cytometry, peak disease", "value": "1.7 and 1.5"}, {"measurement": "Cell #", "setting": "leukocytic infiltration; flow cytometry, peak disease", "value": "1.0 ×10^6"}, {"measurement": "Inflammatory infiltrates at peak disease", "setting": "inflammatory infiltrates", "value": "limits the inflammatory infiltrates"}, {"measurement": "Effect on incidence and severity of EAE", "setting": "[2]; Table 2 and FIG. 2", "value": "reduces the incidence and severity"}, {"measurement": "Incidence of disease", "setting": "[2]; Tempol 10 mg/gram of food from 14 days prior to T cell transfer, n = 10", "value": ".70"}, {"measurement": "Average peak disease severity", "setting": "[2]; [5]", "value": 2.81}, {"measurement": "Average cumulative disease score", "setting": "[2]; clinical score 0-5 summed over day 0 to day 48, Tempol food from T-14, n = 10", "value": 33.9}, {"measurement": "Clinical sign at peak disease", "setting": "[2]; control animals: complete hind limb paralysis with forelimb weakness", "value": "hind limb paresis"}, {"measurement": "Severity of clinical symptoms and cumulative disease score by time of administration", "setting": "[2]; feed started 2 weeks prior to transfer, at transfer, or at disease onset, FIG. 3", "value": "reduces the severity of clinical symptoms and the cumulative disease score regardless of the time of administration"}, {"measurement": "Time after feed administration until disease severity drops off", "setting": "MOG-induced active EAE", "value": "≤ 2", "unit": "days"}, {"measurement": "Edema and inflammation by average T2 relaxation times", "setting": "[3]; Tempol 2 weeks prior to T cell transfer, to levels observed in healthy animals, FIG. 7", "value": "limits (e.g., reduces) the edema and inflammation"}, {"measurement": "T2 relaxation times, spinal cord histogram", "setting": "[3]; versus control-fed EAE animals", "value": "lower T2 relaxation times"}]}
